Reference: PubChem BioAssay AID1996
In brackets after ≈: the same amount, converted by molar mass.

Conditions: buffer; pH 7.4; 200.0 µM

Row | Compound | solubility kinetic [µg/mL]
1 | COc1ccc(C(=O)CCC(=O)Nc2ccc(Cl)cc2)cc1 | < 0.7
2 | COc1cccc(/C=c2\s/c(=C\C(=O)C(C)(C)C)[nH]c2=O)c1 | 2.1 (≈ 6.62 µM)
3 | COc1ccc(N2C(=O)NC(=O)/C(=C\c3ccccc3[N+](=O)[O-])C2=O)cc1 | 54.4 (≈ 148 µM)
4 | C=CCNC(=O)CC12CC3CC(C1)CC(CC(=O)NCC=C)(C3)C2 | > 49.6
5 | CC(C)(C)Nc1nc(Cl)nc(NCc2ccccc2)n1 | 8 (≈ 27.4 µM)
6 | CN(CC(=O)Nc1cccc(F)c1)CC(=O)Nc1cccc2ccccc12 | 15.4 (≈ 42.1 µM)
7 | CC1CCc2c(sc3ncn(CCO)c(=O)c23)C1 (stereo unspecified) | > 39.7
8 | Cc1[nH]c2ccccc2c1C(C[N+](=O)[O-])c1cccc(O)c1 (stereo unspecified) | 40.1 (≈ 135 µM)
9 | Cc1onc(-c2ccccc2)c1NC(=O)N(CCC#N)Cc1ccccc1 | 45.4 (≈ 126 µM)
10 | CC1CCc2c(sc(/N=C/c3cccnc3)c2C(N)=O)C1 (stereo unspecified) | 26.8 (≈ 89.5 µM)
11 | Br.O=C(Cn1c(NCCO)nc2ccccc21)c1ccc(F)cc1 | 22.4
12 | O=C(CCNS(=O)(=O)c1cccc(C(F)(F)F)c1)NCc1ccco1 | > 56.5
13 | Cc1cccc(OCCSc2nc3ccccc3n2CCC(=O)O)c1 | 53.4 (≈ 150 µM)
14 | Cc1cccc(N2N=C(C(=O)N3Cc4ccccc4CC3C(N)=O)CCC2=O)c1 (stereo unspecified) | > 58.6
15 | CC(=O)Nc1ccc(OCC(O)Cn2nc(C)c(C)c2C)cc1 (stereo unspecified) | > 47.6
16 | CC(C)Cc1ccc(/C=C/C(=O)N2CCCCC2)cc1 | 11.6 (≈ 42.7 µM)
17 | CC1CCCN(C(=O)COC(=O)Cc2ccc(Cl)cc2)C1 (stereo unspecified) | 29.8 (≈ 96.2 µM)
18 | O=C(Nc1ccc(N2CCCCC2)c(S(=O)(=O)Nc2ccccc2Cl)c1)c1cccnc1 | 1.5 (≈ 3.18 µM)
19 | CN(CCC#N)Cc1cc(=O)oc2ccc3ccccc3c12 | 33.5 (≈ 115 µM)
20 | O=Cc1ccc(C(=O)OCC(=O)N2CCCC2)cc1 | 36.3 (≈ 139 µM)
21 | COc1ccccc1-c1nc(C#N)c(N2CC(C)CC(C)C2)o1 (stereo unspecified) | 1.5 (≈ 4.82 µM)
22 | CC(Oc1ccc([N+](=O)[O-])cc1)C(=O)NCC1CCCO1 (stereo unspecified) | > 44.1
23 | CN(C)CCNC(=S)Nc1ccc(F)c(F)c1F | > 41.6
24 | COc1ccc2nc(SCC(=O)NC3CCCCC3)[nH]c2c1 | > 47.9
25 | O=C(OCC(=O)N1CCOCC1)c1ccccc1Br | > 49.2

Row | Compound | solubility kinetic [µg/mL]
26 | CC1CCN(C(=O)CCNC(=O)c2ccccc2)CC1 | 37.1 (≈ 135 µM)
27 | O=C1OCc2ccc(NC(=O)c3ccccc3C(=O)O)cc21 | > 44.6
28 | CC1(C)CC(NC(=O)c2ccccc2)CC(C)(C)N1 | > 39.1
29 | CCOc1ncccc1C(=O)NCCc1ccc(Cl)cc1 | 33.7 (≈ 111 µM)
30 | C=CCn1ccc2c([N+](=O)[O-])cccc2c1=O | 30.2 (≈ 131 µM)
31 | Cc1cc(Br)c(NC(=O)COC(=O)CC2CC3CCC2C3)c(Br)c1 (stereo unspecified) | 7.7 (≈ 16.8 µM)
32 | Nc1cccc(CN2CCCC2)c1 | > 26.4
33 | Cc1ccc(NC(=S)N2CCC(c3ccccc3)C2)c(Cl)c1 (stereo unspecified) | 7.1 (≈ 21.5 µM)
34 | COc1ccc(/C=C/C(=O)Nc2ccncc2)cc1OC | 29.8 (≈ 105 µM)
35 | O=C(CN1CCC(NC(=O)C2CC2)CC1)Nc1cccc(F)c1 | > 47.9
36 | Cc1cccc(C(=S)N2CCOCC2)n1 | > 33.3
37 | O=C(CNC(=O)c1ccco1)Nc1cccc(Cl)c1 | 18.9 (≈ 67.8 µM)
38 | CCOc1ccccc1Nc1cc(C)c2cccc(C)c2n1 | 0.5 (≈ 1.71 µM)
39 | Nc1cc(-c2ccncc2)c[nH]c1=O | > 28.1
40 | O=C(Nc1ccccc1)C1CC(=O)N(Cc2ccccc2)C1 (stereo unspecified) | > 44.2
41 | CCN(c1cccc(C)c1)S(=O)(=O)c1ccc2c(c1)oc(=O)n2C | 2.7 (≈ 7.79 µM)
42 | COc1ccc(CC(=O)Nc2nc(C)cs2)cc1 | 27.2 (≈ 104 µM)
43 | Cc1ccc(Nc2ccncc2S(N)(=O)=O)cc1 | 33 (≈ 125 µM)
44 | O=C1CCC(=O)N1CC(=O)N1CCCc2ccccc21 | 28.5 (≈ 105 µM)
45 | CCOC(=O)CCCNC(=O)COC(=O)c1cccc(F)c1 | 44.4 (≈ 143 µM)
46 | COc1ccc2[nH]c(C(=O)Nc3ccc(F)cc3Br)cc2c1 | < 0.4
47 | CC(=O)Nc1ccc(S(=O)(=O)Nc2ccc3nc(C)sc3c2)cc1 | 14.6 (≈ 40.4 µM)
48 | Cn1c(CNc2ccc(O)cc2)nc2ccccc21 | 35 (≈ 138 µM)
49 | COCCSc1ccccc1C(=O)N1CCc2ccccc2C1 | > 49.1
50 | Cl.Fc1ccc(CNC2CN3CCC2CC3)cc1 (stereo unspecified) | > 46.1

Row | Compound | solubility kinetic [µg/mL]
51 | O=C(COC(=O)c1ccc2ncsc2c1)Nc1ccccc1Cl | 4 (≈ 11.5 µM)
52 | COc1cc2c(cc1Cl)C(=O)C(F)(c1ccccc1)C(=O)N2 (stereo unspecified) | 0.8 (≈ 2.5 µM)
53 | O=[N+]([O-])c1ccc2c(c1)nc1n2CCN(c2ccccc2)C1 | 6.8 (≈ 23.1 µM)
54 | CC(=O)Oc1cccc(Nc2ncnc3ccccc23)c1 | > 41.9
55 | Cn1cccc1C(=O)NC(=O)COC(=O)CCNS(=O)(=O)c1ccc(Cl)cc1 | 13.8 (≈ 32.3 µM)
56 | COc1cc(N)c(Cl)cc1C(=O)OCC(=O)c1cccs1 | 4.2 (≈ 12.9 µM)
57 | O=C(CCCN1C(=O)c2ccccc2C1=O)Nc1ccccc1 | > 46.3
58 | O=c1ccc2ccc(Oc3ccc([N+](=O)[O-])cc3Cl)cc2o1 | 2.5 (≈ 7.87 µM)
59 | N/C(=N\S(=O)(=O)c1ccc(Cl)cc1)N1CCOCC1 | > 45.6
60 | COc1ccc(NC(=O)Nc2nc3ccccc3s2)cc1 | < 0.2
61 | Cc1ccc(C)c(Nc2cc(C)nc3ccccc23)c1 | > 39.4
62 | Fc1cccc(Nc2ncnc3sccc23)c1 | 5.7 (≈ 23.2 µM)
63 | O=C1c2ccccc2C(O)(c2ccccc2)N1C1CC1 (stereo unspecified) | 38.3 (≈ 144 µM)
64 | Cn1cccc1C(=O)NC1CCCCC1 | > 30.9
65 | CCOC(=O)c1ccc(NC(=O)C2COc3ccccc3O2)cc1 (stereo unspecified) | 2.1 (≈ 6.42 µM)
66 | O=C(Nc1ccc2c(c1)OCCO2)c1ccc(Cl)cc1Cl | 3.5 (≈ 10.8 µM)
67 | O=C(COC(=O)c1ccc([N+](=O)[O-])o1)NCc1ccc(F)cc1 | > 48.3
68 | CCC(=O)N/C(N)=N/c1nc(C)c2cc(C)c(C)cc2n1 | 11.6 (≈ 40.7 µM)
69 | O=c1c2c3c(sc2nc2n1CCCCC2)C(O)CCC3 (stereo unspecified) | > 43.6
70 | CCc1c(C)sc(NC(=O)c2cc(C(C)C)on2)c1C#N | 3.4 (≈ 11.2 µM)
71 | Cl.Nc1nc2nc[nH]c2c(=O)[nH]1 | 21.5
72 | COc1ccc(S(=O)(=O)N2CCc3ccccc32)cc1C(=O)NCC(c1ccco1)N1CCCC1 (stereo unspecified) | 20.1 (≈ 40.6 µM)
73 | Cc1ccccc1NC(=S)NC1CCCC1 | 34.9 (≈ 149 µM)
74 | Nc1ccc(C(=O)O)c(O)c1 | > 23
75 | O=C(COC(=O)c1c(F)cccc1F)NCc1cccs1 | > 46.7

Row | Compound | solubility kinetic [µg/mL]
76 | COc1ccc(CCNC(=S)c2ccccc2)cc1OC | > 45.2
77 | O=S(=O)(c1cccs1)N1CCC2(CC1)OCCO2 | > 43.4
78 | CCOc1ccc(C(C)NC(=O)C2CCCC2)cc1 (stereo unspecified) | > 39.2
79 | O=c1cc(CSCc2ccc(Cl)cc2)[nH]c(=O)[nH]1 | 41.3 (≈ 146 µM)
80 | CCC1CCCCN1C(=O)COc1ccc(F)cc1 (stereo unspecified) | 38.1 (≈ 144 µM)
81 | O=C(COC(=O)c1ccc([N+](=O)[O-])s1)NNC(=O)c1ccccc1 | > 52.4
82 | O=[N+]([O-])c1c(NCCO)cc(N2CCCCC2)c2nonc12 | 38.6 (≈ 126 µM)
83 | Cc1noc(C)c1NC(=O)NCCN1CCN(Cc2ccccc2)CC1 | > 53.6
84 | Cc1ccc(-c2ccc(S(=O)(=O)NCC3CCCO3)cc2)cc1 (stereo unspecified) | 1.6 (≈ 4.83 µM)
85 | NC(=S)NC1CCS(=O)(=O)C1 (stereo unspecified) | > 29.1
86 | CCOc1ccc(NC(=O)COC(=O)Cn2cnc3ccccc32)cc1 | 19.9 (≈ 56.3 µM)
87 | Clc1ccccc1CSc1nncn1-c1cccnc1 | > 45.4
88 | CCC(=O)N(Cc1cc(=O)[nH]c2ccccc12)c1ccc(C)cc1C | 43.9 (≈ 131 µM)
89 | CCN1CNC(=S)N(c2ccccc2C)C1 | > 35.3
90 | CC(=O)c1ccc(S(=O)(=O)NC2CC2)cc1 | 26.1 (≈ 109 µM)
91 | CC(O)c1nc2cc([N+](=O)[O-])ccc2n1Cc1ccccc1 (stereo unspecified) | 6.9 (≈ 23.2 µM)
92 | NC(=O)/C(=C\c1cccnc1)NC(=O)c1ccccc1 | > 40.1
93 | N#Cc1c(/N=C/c2cccnc2)sc2c1CCCC2 | 7.5 (≈ 28.1 µM)
94 | CCOP(=O)(OCC)/C(=N/OC(=O)c1ccc(OC)cc1)C(N)=O | > 53.7
95 | NS(=O)(=O)c1ccc(CNc2ncnc3sccc23)cc1 | > 48.1
96 | CN1CCN(C(=O)/C=C/c2c(F)cccc2Cl)CC1 | > 42.4
97 | CC(C)Oc1ccc(CNC(=O)Oc2ccccc2)cc1 | 25.5 (≈ 89.4 µM)
98 | CCN1CCN(c2ccc(NC(=O)c3cccc(S(=O)(=O)N4CCCC4)c3)cc2)CC1 | 63.2 (≈ 143 µM)
99 | COc1cccc(CNC(=O)c2ccccc2-c2ccccc2)c1 | 2.1 (≈ 6.62 µM)
100 | CC(C(=O)N(C)C1CCCCC1)N1CCC(C(N)=O)CC1 (stereo unspecified) | 43.1 (≈ 146 µM)

Row | Compound | solubility kinetic [µg/mL]
101 | COc1ccccc1N1CCN(C(=O)c2ccc(Br)o2)CC1 | > 54.8
102 | CCOC(=O)Cn1c(C)c(Br)c(COC)c(C#N)c1=O | > 51.5
103 | NC(N)=NCCCC(NC(=O)c1ccccc1)C(=O)Nc1ccc2ccccc2c1 (stereo unspecified) | 52.2 (≈ 129 µM)
104 | Cc1ccc2nc(SCC(=O)N3CCN(c4ccccc4)CC3)[nH]c2c1 | 1.7 (≈ 4.64 µM)
105 | COc1ccc(/C=C/C(=O)ONC2=NCCCCC2)cc1OC | > 47.8
106 | N#CCSc1nc2ccccc2c(=O)n1CC1CCCC1 | 0.8 (≈ 2.67 µM)
107 | CNC(=S)N(CCc1c(C)[nH]c2ccccc12)Cc1cccnc1 | > 50.8
108 | O=C(COc1ccc([N+](=O)[O-])cc1)N1CCc2ccccc2C1 | 37.5 (≈ 120 µM)
109 | CN1C(=O)NC(c2ccccc2[N+](=O)[O-])C2=C1CC(C)(C)CC2=O (stereo unspecified) | 39.4 (≈ 120 µM)
110 | O=C(N[C@@H]1C[C@H]2CC[C@@H]1C2)c1ccco1 | 29.8 (≈ 145 µM)
111 | COc1ccc(OCCNC(=O)c2ccc(C)cc2)cc1 | 36.8 (≈ 129 µM)
112 | S=C(NCCC1=CCCCC1)NCc1ccco1 | 38.8 (≈ 147 µM)
113 | O=C(O)CC(CC(=O)Nc1ccc(-c2ccccc2)cc1)c1ccccc1 (stereo unspecified) | > 53.9
114 | O=C(CSc1ncccn1)Nc1ccc2c(c1)CCC2 | 37.9 (≈ 133 µM)
115 | CCN(CC)CCN(C(=O)/C=C/c1cccs1)c1nc2ccc(F)cc2s1.Cl | < 0.3
116 | COc1ccc(CCNc2ccc([N+](=O)[O-])cn2)cc1 | 7.1 (≈ 26 µM)
117 | COc1ccc(/C=C2\C(=O)ON=C2c2ccccc2)cc1 | 39.1 (≈ 140 µM)
118 | O=C(CCc1nnc(-c2ccccc2)o1)NC1CCCCC1 | > 44.9
119 | COc1ccccc1OCCn1cc(C=O)c2ccccc21 | 7.8 (≈ 26.4 µM)
120 | COc1ccccc1NC(=O)c1ccc(-n2ccnc2)c([N+](=O)[O-])c1 | > 50.7
121 | Cc1c(OCC(=O)N(C)C)ccc2c(-c3ccccc3)cc(=O)oc12 | 13.6 (≈ 40.3 µM)
